According to ChEMBL document CHEMBL1201862, “PubChem BioAssay data set” (2004):
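Assay format: 96-well plates, 48-hour exposure. The concentration for 50% growth inhibition is given as GI50.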 The source made the active and inactive calls. Cut-off read from the data, not from the text of the source: active = GI50 up to about 1.1 µM and inactive = higher.

Experiments:
Assay in all cases: NCI anticancer screen, dose series, 48 h
786-0 = test system: 786-0
A498 = test system: A498
A549 = test system: A549
ACHN = test system: ACHN
CAKI-1 = test system: CAKI-1
CCRF-CEM = test system: CCRF-CEM
COLO 205 = test system: COLO 205
DLD-1 = test system: DLD-1
DMS-273 = test system: DMS-273
HCC 2998 = test system: HCC 2998
HCT-15 = test system: HCT-15
HL-60 = test system: HL-60
HOP-18 = test system: HOP-18
HOP-62 = test system: HOP-62
HOP-92 = test system: HOP-92
HT-29 = test system: HT-29
IGROV-1 = test system: IGROV-1
K562 = test system: K562
KM-20L2 = test system: KM-20L2
KM12 = test system: KM12
LOX IMVI = test system: LOX IMVI
LXFL 529 = test system: LXFL 529
M14 = test system: M14
M19-MEL = test system: M19-MEL
MOLT-4 = test system: MOLT-4
Malme-3M = test system: Malme-3M
NCI-H226 = test system: NCI-H226
NCI-H23 = test system: NCI-H23
NCI-H460 = test system: NCI-H460
OVCAR-3 = test system: OVCAR-3
OVCAR-4 = test system: OVCAR-4
OVCAR-5 = test system: OVCAR-5
RPMI-8226 = test system: RPMI-8226
RXF 393 = test system: RXF 393
RXF 631 = test system: RXF 631
SF-268 = test system: SF-268
SF-295 = test system: SF-295
SF-539 = test system: SF-539
SK-MEL-28 = test system: SK-MEL-28
SK-MEL-2 = test system: SK-MEL-2
SK-MEL-5 = test system: SK-MEL-5
SK-OV-3 = test system: SK-OV-3
SN12C = test system: SN12C
SNB-75 = test system: SNB-75
SNB-78 = test system: SNB-78
SW-620 = test system: SW-620
U-251 = test system: U-251
UACC-257 = test system: UACC-257
UACC-62 = test system: UACC-62
UO-31 = test system: UO-31
XF498 = test system: XF498
EKVX = test system: EKVX
NCI-H522 = test system: NCI-H522
OVCAR-8 = test system: OVCAR-8
SNB-19 = test system: SNB-19
TK-10 = test system: TK-10
DMS-114 = test system: DMS-114
HCT-116 = test system: HCT-116

Measured: GI50

CC(C)(C)C(=O)ON1N=NC2C3CC(OCc4ccccc4)(OCc4ccccc4)C(O3)C21 (configuration not stated)
20.1 µM: HCT-15
inactive: 786-0 18.5 µM | A498 35.7 µM | A549 32.7 µM | ACHN 27.7 µM | CAKI-1 31 µM | CCRF-CEM 4.4 µM | COLO 205 18.7 µM | DLD-1 15.6 µM | DMS-273 22.3 µM | HCC 2998 14.2 µM | HL-60 3.79 µM | HOP-18 24.2 µM | HOP-62 28.3 µM | HOP-92 12 µM | HT-29 22.3 µM | IGROV-1 35.1 µM | K562 11.7 µM | KM-20L2 28.4 µM | KM12 23.6 µM | LOX IMVI 15.4 µM | LXFL 529 11.1 µM | M14 26.4 µM | M19-MEL 15.8 µM | MOLT-4 3.41 µM | Malme-3M 16.3 µM | NCI-H226 17.7 µM | NCI-H23 19.6 µM | NCI-H460 24 µM | OVCAR-3 16.9 µM | OVCAR-4 22.6 µM | OVCAR-5 33.6 µM | RPMI-8226 7.38 µM | RXF 393 15.8 µM | RXF 631 24.7 µM | SF-268 29.1 µM | SF-295 22.1 µM | SF-539 16.3 µM | SK-MEL-28 19.1 µM | SK-MEL-2 19.1 µM | SK-MEL-5 15.6 µM | SK-OV-3 53.1 µM | SN12C 19.3 µM | SNB-75 24.1 µM | SNB-78 26 µM | SW-620 14.9 µM | U-251 16.9 µM | UACC-257 13.7 µM | UACC-62 18.5 µM | UO-31 22.4 µM | XF498 18.9 µM

O=c1[nH]c(=O)n(C2OC3COC2C3O)cc1F (configuration not stated)
inactive: 786-0 > 100 µM | A549 > 100 µM | ACHN > 100 µM | CAKI-1 > 100 µM | CCRF-CEM > 100 µM | COLO 205 > 100 µM | DLD-1 > 100 µM | DMS-273 > 100 µM | EKVX > 100 µM | HCC 2998 > 100 µM | HL-60 > 100 µM | HOP-18 > 100 µM | HOP-62 > 100 µM | HOP-92 29.8 µM | HT-29 > 100 µM | K562 > 100 µM | KM-20L2 > 100 µM | KM12 > 100 µM | LOX IMVI > 100 µM | LXFL 529 > 100 µM | M14 > 100 µM | MOLT-4 > 100 µM | Malme-3M > 100 µM | NCI-H226 41.5 µM | NCI-H23 > 100 µM | NCI-H460 > 100 µM | NCI-H522 > 100 µM | OVCAR-3 > 100 µM | OVCAR-4 > 100 µM | OVCAR-5 > 100 µM | OVCAR-8 > 100 µM | RPMI-8226 > 100 µM | RXF 393 > 100 µM | RXF 631 > 100 µM | SF-268 > 100 µM | SF-295 > 100 µM | SK-MEL-28 > 100 µM | SK-MEL-2 > 100 µM | SK-MEL-5 > 100 µM | SK-OV-3 48.1 µM | SN12C > 100 µM | SNB-19 > 100 µM | SNB-75 > 100 µM | SNB-78 > 100 µM | SW-620 > 100 µM | TK-10 > 100 µM | U-251 > 100 µM | UACC-257 > 100 µM | UO-31 > 100 µM | XF498 > 100 µM
> 100 µM: HCT-15

C[C@]12CC(C=O)C(=O)C(O)=C1CC[C@@H]1C2CC[C@@]2(C)C1CC[C@]2(C)O (some centres not stated)
23 µM: HCT-15
inactive: 786-0 16.3 µM | A498 22.1 µM | A549 57.4 µM | ACHN 22.3 µM | CCRF-CEM > 10 µM | COLO 205 18.8 µM | DLD-1 8.55 µM | DMS-114 16.5 µM | DMS-273 21.6 µM | EKVX 31.8 µM | HCC 2998 10.1 µM | HCT-116 20 µM | HL-60 15.8 µM | HOP-62 22.1 µM | HOP-92 16 µM | HT-29 4.66 µM | IGROV-1 19.2 µM | K562 25.9 µM | KM-20L2 22 µM | KM12 25.5 µM | LOX IMVI 11.5 µM | LXFL 529 16.6 µM | M14 16.8 µM | M19-MEL 20.1 µM | MOLT-4 22.3 µM | Malme-3M 5.06 µM | NCI-H226 18.6 µM | NCI-H23 21.7 µM | NCI-H460 30.3 µM | OVCAR-3 24.8 µM | OVCAR-4 13.2 µM | OVCAR-5 16.5 µM | OVCAR-8 28.8 µM | RPMI-8226 16.6 µM | RXF 393 21.4 µM | RXF 631 25.6 µM | SF-268 25.4 µM | SF-295 27.1 µM | SF-539 18.5 µM | SK-MEL-28 25.8 µM | SK-MEL-2 5.02 µM | SK-MEL-5 17.6 µM | SK-OV-3 21.4 µM | SN12C 21.2 µM | SNB-19 25.2 µM | SNB-75 20.6 µM | SNB-78 16.5 µM | SW-620 34.3 µM | TK-10 38.9 µM | U-251 20.4 µM | UACC-257 24.2 µM | UACC-62 13.8 µM | UO-31 21.3 µM | XF498 18.2 µM
